Assay results published in patent US11859229B2, “Polyvinyl alcohol-degrading enzyme and process for producing the same” (Hayashibara Co., Ltd., priority 2017, dated 2024).

Key:
Format in all cases: biochemical, Pseudomonas sp. VT1B strain (NBRC110478)
PVA-B [1] = experiment: Effects of various metal salts on PVA-oxidizing activity of PVA-B
Protocol: (§1) To 0.5 mL of a substrate solution prepared by dissolving PVA (Reagent grade polyvinyl alcohol, polymerization degree: 2,000, Nacalai Tesque Inc., Kyoto, Japan) into 100 mM sodium phosphate buffer (pH 7.0) to give a concentration of 2% (w/v), 15 µL of 2% (w/v) of sodium azide solution was added, and then 0.5 mL of an enzyme solution is further added and reacted with shaking at 27° C. for 60 min. After the 60 min-reaction, the reaction was stopped by mixing 0.32 mL of the reaction mixture to 0.8 mL of a titanium reagent, and the yellow color, produced by reacting hydrogen peroxide formed by the enzyme reaction and the titanium reagent, was measured by measuring the absorbance at 410 nm (A410) as an index. Separately, the enzyme solution was added to the substrate solution, and the resulting mixture is immediately mixed with the titanium reagent. The resulting mixture was similarly measured its color and the value was used as the value at the reaction zero minutes. Then, the amount of the formed hydrogen peroxide is determined and the PVA-oxidizing activity is calculated based on the following formula. It is known that the absorbance at 410 nm (A410) increases by “1” when 3.65 […]mole/mL of hydrogen peroxide is formed. Therefore, in the following Formula 1, the coefficient of “3.65” has been multiplied. One unit of the PVA-oxidizing activity is defined as the amount of enzyme that forms 1 […]mole of hydrogen peroxide per min under the above conditions. Titanium reagent is prepared by diluting 5% titanium sulfate (IV) solution, commercialized by Nacalai Tesque Inc., Kyoto, Japan, 25-fold with 10% (w/w) sulfuric acid.
(§2) Using the purified enzyme preparations of PVA-A and PVA-B, obtained by the method of Experiment 2, effects of various metal salts on the enzyme activity were investigated according to the assay of the PVA-oxidizing activity as an index in the presence of 1 mM metal salts.

PVA-A [2] = experiment: Effects of various metal salts on PVA-oxidizing activity of PVA-A
Protocol: as §1, §2

PVA-B [3] = experiment: Substrate specificity of PVA-oxidizing activity of PVA-B; conditions: substrate 1% (v/v) or saturated; activity against PVA = 100%
Protocol: as §1
(§3) The substrate specificity of PVA-oxidizing activity was investigated by allowing PVA-A and PVA-B, the purified enzyme preparations obtained by the method in Experiment 2, to act on various secondary alcohols, primary alcohols and the like as substrates. In other words, the PVA-oxidizing activity of the enzymes was measured for primary alcohols having different chain length (methanol, ethanol, propanol, butanol, pentanol, hexanol, heptanol, and decanol), secondary alcohols (2-propanol, 2-pentanol, 2-hexanol, 4-heptanol, 2-octanol, 4-decanol, and 2, 4-pentanediol), and a tertiary alcohol (tert-butanol).

PVA-A [4] = experiment: Substrate specificity of PVA-oxidizing activity of PVA-A; conditions: substrate 1% (v/v) or saturated; activity against PVA = 100%
Protocol: as §1, §3

PVA-A and PVA-B = experiment: Effects of metal salts on PVA-oxidizing activity, summary for both enzymes; conditions: 1 mM, in words
Protocol: as §2

[5] = PVA-oxidizing activity in the presence of 1 mM metal salts, None = 100

## [Cl][Ni][Cl] [NiCl2]
PVA-B [1]; [5]
  Relative activity (%) PVA-B: 76%
PVA-A [2]; [5]
  Relative activity (%) PVA-A: 91%

## CCCO [Propanol]
PVA-B [3]
  Relative activity (%) PVA-B: 0%
PVA-A [4]
  Relative activity (%) PVA-A: 0%

## CCO [Ethanol]
PVA-B [3]
  Relative activity (%) PVA-B: 0%
PVA-A [4]
  Relative activity (%) PVA-A: 0%

## CCCCCCC(C)O (stereo not shown) [2-Octanol]
PVA-B [3]
  Relative activity (%) PVA-B: 6%
PVA-A [4]
  Relative activity (%) PVA-A: 3%

## CCCCCCCO [Heptanol]
PVA-B [3]
  Relative activity (%) PVA-B: 1%
PVA-A [4]
  Relative activity (%) PVA-A: 0%

## CC(C)(C)O [tert-Butanol]
PVA-B [3]
  Relative activity (%) PVA-B: 1%
PVA-A [4]
  Relative activity (%) PVA-A: 0%

## [Cl][Al]([Cl])[Cl] [AlCl3]
PVA-B [1]; [5]
  Relative activity (%) PVA-B: 63%
PVA-A [2]; [5]
  Relative activity (%) PVA-A: 91%

## [Cl-].[Cl-].[Sr+2] [SrCl2]
PVA-B [1]; [5]
  Relative activity (%) PVA-B: 101%
PVA-A [2]; [5]
  Relative activity (%) PVA-A: 99%

## CO [Methanol]
PVA-B [3]
  Relative activity (%) PVA-B: 0%
PVA-A [4]
  Relative activity (%) PVA-A: 0%

## RbCl2
PVA-B [1]; [5]
  Relative activity (%) PVA-B: 99%
PVA-A [2]; [5]
  Relative activity (%) PVA-A: 91%

## CCCCCCCCCCO [Decanol]
PVA-B [3]
  Relative activity (%) PVA-B: 0%
PVA-A [4]
  Relative activity (%) PVA-A: 0%

## [Ca+2].[Cl-].[Cl-] [CaCl2]
PVA-B [1]; [5]
  Relative activity (%) PVA-B: 98%
PVA-A [2]; [5]
  Relative activity (%) PVA-A: 98%

## CCCCCCO [Hexanol]
PVA-B [3]
  Relative activity (%) PVA-B: 1%
PVA-A [4]
  Relative activity (%) PVA-A: 0%

## [Cl][Fe]([Cl])[Cl] [FeCl3]
PVA-B [1]; [5]
  Relative activity (%) PVA-B: 19%
PVA-A and PVA-B
  Effect on PVA-oxidizing activity: remarkably inhibited
PVA-A [2]; [5]
  Relative activity (%) PVA-A: 29%

## [Cl-].[Na+] [NaCl]
PVA-B [1]
  Relative activity (%) PVA-B: 106%
PVA-A [2]
  Relative activity (%) PVA-A: 94%

## CCCC(C)O (stereo not shown) [2-Pentanol]
PVA-B [3]
  Relative activity (%) PVA-B: 5%
PVA-A [4]
  Relative activity (%) PVA-A: 2%

## [Cl][Mn][Cl] [MnCl2]
PVA-B [1]; [5]
  Relative activity (%) PVA-B: 87%
PVA-A [2]; [5]
  Relative activity (%) PVA-A: 96%

## CCCCC(C)O (stereo not shown) [2-Hexanol]
PVA-B [3]
  Relative activity (%) PVA-B: 8%
PVA-A [4]
  Relative activity (%) PVA-A: 5%

## Butanol
PVA-B [3]
  Relative activity (%) PVA-B: 0%
PVA-A [4]
  Relative activity (%) PVA-A: 0%

## [Cl-].[K+] [KCl]
PVA-B [1]; [5]
  Relative activity (%) PVA-B: 116%
PVA-A [2]; [5]
  Relative activity (%) PVA-A: 93%

## CC(C)O [2-Propanol]
PVA-B [3]
  Relative activity (%) PVA-B: 1%
PVA-A [4]
  Relative activity (%) PVA-A: 0%

## CC(O)CC(C)O (stereo not shown) [2,4-Pentanediol]
PVA-B [3]
  Relative activity (%) PVA-B: 0%
PVA-A [4]
  Relative activity (%) PVA-A: 0%

## [Cl][Sn][Cl] [SnCl2]
PVA-B [1]; [5]
  Relative activity (%) PVA-B: 102%
PVA-A [2]; [5]
  Relative activity (%) PVA-A: 78%

## CCCCCCC(O)CCC (stereo not shown) [4-Decanol]
PVA-B [3]
  Relative activity (%) PVA-B: 1%
PVA-A [4]
  Relative activity (%) PVA-A: 3%

## O=C(O)CN(CCN(CC(=O)O)CC(=O)O)CC(=O)O [EDTA]
PVA-B [1]; [5]
  Relative activity (%) PVA-B: 45%
PVA-A and PVA-B
  Effect on PVA-oxidizing activity: also inhibited
PVA-A [2]; [5]
  Relative activity (%) PVA-A: 56%

## CCCCCO [Pentanol]
PVA-B [3]
  Relative activity (%) PVA-B: 0%
PVA-A [4]
  Relative activity (%) PVA-A: 0%

## [Cl-].[Cl-].[Mg+2] [MgCl2]
PVA-B [1]; [5]
  Relative activity (%) PVA-B: 104%
PVA-A [2]; [5]
  Relative activity (%) PVA-A: 98%

## CCCC(O)CCC [4-Heptanol]
PVA-B [3]
  Relative activity (%) PVA-B: 12%
PVA-A [4]
  Relative activity (%) PVA-A: 21%

## [Cl][Hg][Cl] [HgCl2]
PVA-B [1]; [5]
  Relative activity (%) PVA-B: 4%
PVA-A and PVA-B
  Effect on PVA-oxidizing activity: remarkably inhibited
PVA-A [2]; [5]
  Relative activity (%) PVA-A: 22%
